According to US9012216B2, “Methods of determining efficacy of cyclodextrin therapy” (Washington University, priority 2008, dated 2015):

Assay: Stability of oxysterols in NPC plasma samples processed with/without BHT at 4° C. or room temperature
Type: physicochemical, human
Description: Treatments include: NPC plasma samples treated with BHT (“BHT”), no BHT (“No BHT”), at 4° C. with BHT (“4 BHT”), at 4° C. without BHT (“4 No BHT”), at room temperature (20-21° C.) with BHT (“RT BHT”), and at room temperature (20-21° C.) without BHT (“RT No BHT”).
Treatments include: NPC plasma samples treated overnight with BHT (“BHT”), no BHT (“No BHT”), at 4° C. with BHT (“4 BHT”), at 4° C. without BHT (“4 No BHT”), at room temperature (20-21° C.) with BHT (“RT BHT”), and at room temperature (20-21° C.) without BHT (“RT No BHT”).
The stability of the oxysterols triol and 7-keto prepared in accordance with the methods of the present disclosure are shown in FIGS. 7A and 7B. Patient's having confirmed NPC disease were used to obtain plasma biological samples. The plasma biological samples were processed as described in Examples 1-4 except that some of the samples were not treated with butylated hydroxytoluene (BHT, a known antioxidant that prevents further oxidation of cholesterol), and either treated at room temperature or at 4° C. with and without BHT.

Row | Compound | Stability in plasma samples: ability to isolate and quantify
1 | CC(C)CCC[C@@H](C)[C@H]1CC[C@H]2[C@@H]3C(=O)C=C4C[C@@H](O)CC[C@]4(C)[C@H]3CC[C@]12C [7-keto, 7-ketocholesterol] | without adversely affecting
2 | CC(C)CCC[C@@H](C)[C@H]1CC[C@H]2[C@@H]3C[C@@H](O)[C@@]4(O)C[C@@H](O)CC[C@]4(C)[C@H]3CC[C@]12C [triol, cholestane-3β,5α,6β-triol] | without adversely affecting
